In patent publication US7354918B2, “Derivatives of 14.15-dihydro 20.21-dinoreburnamenin-14-ol and applications thereof” (Biocortech, priority 2004, dated 2008):

Experiments:
[1] = system: tyrosine hydroxylase (TH) in the Locus Caeruleus (LC); assay: TH protein content in the locus caeruleus, direct transfer of brain sections on nitrocellulose, quantitative immunochemistry; format: in vivo, Balb/c mice; conditions: for Quantity of TH measured in the LC: single dose 20 mg/kg i.p., sacrificed three days after injection, average±sem on the entire structure, percent of the average value of the corresponding control group
Balb/c variety = assay: Tail Suspension Test (TST); format: in vivo, Balb/c mice; conditions: 6-minute period, vehicle 180
Method: The behavioural activity test, the Tail Suspension Test (TST) validated by antidepressants (Ref. 7) in the Balb/c variety, was also done for the molecule in the preferred example (Ie1b) at a dose of 1 mg/kg i.p. The experiment given as an example was carried out three days after a single injection and the effect was compared with the effect of imipramine (30 mg/kg i.p. 30 minutes before the test) (see Table 4 below).
The results are the average for n animals.

[2] = system: catecholamine transport systems; assay: Receptorial profile in vitro on 74 receptors and channels; format: binding; conditions: concentration of 10 micromoles
[3] = Biodistribution study (brain, liver) after i.p. and oral administration; format: in vivo; conditions: for share of the cerebral concentration: 45 minutes after p.o. administration of (Ie1) 60 mg/kg
M1 receptors = target: T1, M1 receptors (Homo sapiens, UniProt P11229); assay: Receptorial profile in vitro on 74 receptors and channels; format: binding; conditions: concentration of 10 micromoles
T1 sequence (P11229 1-460): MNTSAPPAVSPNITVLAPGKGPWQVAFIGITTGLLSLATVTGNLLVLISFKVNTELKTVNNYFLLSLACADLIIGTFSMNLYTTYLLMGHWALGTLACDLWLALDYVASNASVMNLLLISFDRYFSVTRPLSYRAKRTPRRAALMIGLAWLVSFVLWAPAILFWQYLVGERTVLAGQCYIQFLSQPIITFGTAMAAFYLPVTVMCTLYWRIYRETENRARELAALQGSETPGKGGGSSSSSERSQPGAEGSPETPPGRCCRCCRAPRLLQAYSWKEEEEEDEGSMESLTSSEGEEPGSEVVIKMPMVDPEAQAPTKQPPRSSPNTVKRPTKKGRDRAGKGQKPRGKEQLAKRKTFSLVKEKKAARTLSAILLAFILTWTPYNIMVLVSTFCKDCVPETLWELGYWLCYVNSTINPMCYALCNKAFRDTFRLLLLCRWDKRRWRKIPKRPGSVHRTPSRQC

[4] = system: voltage dependent K channels; assay: as above; format: binding; conditions: concentration of 10 micromoles
[5] = system: positive TH fibres of the prefrontal cortex; assay: Positive TH (noradrenergic) fibres in the prefrontal cortex by immunocytochemistry; format: in vivo, Balb/c mouse; conditions: 5 i.p. injections 20 mg/kg every three days, sacrificed three days after the last injection
Source text: The results in FIG. 3 show the distribution of positive TH fibres on a prefrontal cortex sample of the Balb/c mouse. At left: in a control mouse, the typical orientation (parallel to the surface of the cortex) of noradrenergic fibres identified using an immunocytochemical reaction related to the presence of TH protein, is noticed in the molecular layer of the prefrontal cortex. […] The animals were sacrificed three days after the last injection. The dashed lines mark the limit of the molecular layer of the prefrontal cortex.

[6] = system: voltage dependent Ca channels; assay: Receptorial profile in vitro on 74 receptors and channels; format: binding; conditions: concentration of 10 micromoles
SK+Ca channels = assay: as above; format: binding; conditions: concentration of 10 micromoles
[7] = system: cells expressing hypocretins in the lateral hypothalamus; assay: Distribution of cells expressing hypocretins in the lateral hypothalamus by immunocytochemistry; format: in vivo, Balb/c mice; conditions: single dose 20 mg/kg i.p.
Method: This property is shared with its direct synthesis precursor, the compound with formula (1). Table 3 below illustrates this type of result the two chemical entities:
The distribution of cells expressing hypocretins in the lateral hypothalamus is studied here with posterior—anterior sampling in consecutive 80 μm thick intervals. The cells are identified by immunocytochemistry using specific antibodies. The two molecules studied were administered by i.p. method with a single dose of 20 mg/kg. The animals were sacrificed three days after injection. A population of about a hundred supernumerary cells is thus identified at the posterior third of the cerebral core.

[8] = system: voltage dependent Na channels; assay: Receptorial profile in vitro on 74 receptors and channels; format: binding; conditions: concentration of 10 micromoles
5HT5A receptors = 5HT5A receptors (Homo sapiens, UniProt P47898); assay: as above; format: binding; conditions: concentration of 10 micromoles
[9] = system: cells containing TH in the LC; assay: Number of TH immunopositive cells in the LC by immunohistochemistry; format: in vivo, Balb/c mice
Method: The number of immunopositive cells for TH is determined starting from coronal brain sections fixed by immunohistochemistry using the same anatomic sampling.
The results in FIG. 2 show the posterior-anterior distribution of the number of cells containing TH in the LC determined by immunohistochemistry obtained in a control group of Balb/c mice and in a group of mice treated by the molecule with formula (Ie1). Each bar represents the average obtained in each 80 μm anatomic interval in each experimental group±sem. **** indicates p<0.0001 determined by an ANOVA II (treatment factor). […] In the entire structure, the average values found were equal to 996±1 and 1250±58 in the control group and in the treated group respectively. (Administered dose 20 mg/kg i.p. sequential treatment at D0, D3, D6, D9 and D12, animals sacrificed at D16).
This phenomenon may be stabilised by an appropriate sequential treatment (for example: one 20 mg/kg i.p. injection every 3 days for 15 days, see FIG. 2). Under these conditions, the increase in the number of positive supernumerary TH cells that appeared in the LC is still maintained for 24 days after the treatment stopped.

[10] = Interval 1 (80 μm, posterior-anterior), sacrificed three days after injection
[11] = Interval 2, three days after injection
[12] = Interval 3, three days after injection
[13] = Interval 4, three days after injection
[14] = Interval 5, three days after injection
[15] = Interval 6, three days after injection
[16] = Interval 7, three days after injection
[17] = Interval 8, three days after injection
[18] = Interval 9, three days after injection
[19] = Interval 10, three days after injection
[20] = Interval 11, three days after injection
[21] = Sum of intervals 1-11, three days after injection

Chain of 5HT5A receptors (P47898 whole entry): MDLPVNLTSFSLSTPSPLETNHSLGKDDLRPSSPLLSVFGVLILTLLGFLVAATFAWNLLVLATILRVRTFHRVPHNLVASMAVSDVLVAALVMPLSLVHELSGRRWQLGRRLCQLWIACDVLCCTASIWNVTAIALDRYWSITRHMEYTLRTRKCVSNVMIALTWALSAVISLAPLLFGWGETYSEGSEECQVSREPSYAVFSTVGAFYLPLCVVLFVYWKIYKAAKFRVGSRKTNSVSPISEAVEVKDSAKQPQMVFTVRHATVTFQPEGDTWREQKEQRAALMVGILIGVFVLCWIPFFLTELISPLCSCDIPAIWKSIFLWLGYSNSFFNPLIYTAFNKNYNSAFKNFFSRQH

**Q.** With “14,15-dihydro 14-(2-morpholin-4-yl-ethoxy) 20,21-dinoreburnamenin [(Ie1b)]” as the compound, how does the “activity relative to the other enantiomer (Ie1a)” value ([1]; mouse, in vivo) read?
**A.** twice as active

**Q.** And the “Average immobilisation time” value (Balb/c variety; 1 mg/kg i.p., three days after a single injection)?
**A.** 130 s

**Q.** With `CCOC(=O)COC1C[C@@H]2CCCN3CCc4c(n1c1ccccc41)[C@@H]23` (mixture of isomers) [(Ia1), (±) (16α) 14,15-dihydro 14-ethoxycarbonylmethoxy-20,21-dinoreburnamenin] as the compound, how does the “Quantity of TH measured in the LC” value [1] read?
**A.** 151 ± 5%

**Q.** For `Cc1noc(COC2C[C@@H]3CCCN4CCc5c(n2c2ccccc52)[C@@H]34)n1` (mixture of isomers) [(Ig1), (±) (3β, 16α) 14,15-dihydro 14-(3-methyl-[1,2,4]oxadiazol-5-ylmethoxy) 20,21-dinoreburnamenin], which “Quantity of TH measured in the LC” value [1] is on record?
**A.** 118 ± 3%

**Q.** With `c1ccc(COC2C[C@@H]3CCCN4CCc5c(n2c2ccccc52)[C@@H]34)cc1` (mixture of isomers) [Compound (Id), (±) (3β, 16α) 14,15-dihydro 14-benzyloxy 20,21-dinoreburnamenin] as the compound, how does the “Quantity of TH measured in the LC” value [1] read?
**A.** 129 ± 5%

**Q.** With `c1ccc2c(c1)c1c3n2[C@H](OCCN2CCOCC2)C[C@@H]2CCCN(CC1)[C@@H]32` (racemic) [Compound (Ie1), 14,15-dihydro 14-(2-morpholin-4-yl-ethoxy) 20,21-dinoreburnamenin] as the compound, how does the “50% effective dose (DE50)” value ([1]; intra-peritoneal (i.p.) method) read?
**A.** 0.5 mg/kg

**Q.** And the “activity relative to direct synthesis precursor with formula (1)” value ([1]; mouse, in vivo)?
**A.** 30 times

**Q.** And the activity by mouth ([1]; oral)?
**A.** active by mouth

**Q.** And the “50% effective dose (DE50)” value ([1]; oral (p.o.) method)?
**A.** 1.5 mg/kg

**Q.** And the “Quantity of TH measured in the LC” value [1]?
**A.** 138 ± 4%

**Q.** And the “interaction with catecholamine transport systems” value [2]?
**A.** no interaction

**Q.** And the “cerebral concentration/hepatic concentration ratio” value ([3]; 45 minutes after i.p. administration, 20 mg/kg)?
**A.** 0.41

**Q.** And the “cerebral concentration/hepatic concentration ratio” value ([3]; 45 minutes after os administration, 60 mg/kg)?
**A.** 0.49

**Q.** And the “share of the cerebral concentration” value [3]?
**A.** 89%

**Q.** What about the “affinity for M1 receptors” value (M1 receptors) of the same compound?
**A.** moderate affinity link may be suspected

**Q.** What about the “interaction with voltage dependent K channels” value [4] of the same compound?
**A.** no interaction

**Q.** What about the “density of noradrenergic fibres in the prefrontal cortex” value [5] of the same compound?
**A.** very significant increase

**Q.** And the “interaction with voltage dependent Ca channels” value [6]?
**A.** no interaction

**Q.** And the “interaction with SK+Ca channels” value (SK+Ca channels)?
**A.** no interaction

**Q.** What about the “Number of cells expressing hypocretins” value [7, 10] of the same compound?
**A.** 31.9

**Q.** And the “Number of cells expressing hypocretins” value [7, 11]?
**A.** 63.7

**Q.** What about the “Number of cells expressing hypocretins” value [7, 12] of the same compound?
**A.** 125.1

**Q.** And the “Number of cells expressing hypocretins” value [7, 13]?
**A.** 210.5

**Q.** And the “Number of cells expressing hypocretins” value [7, 14]?
**A.** 331.7

**Q.** What about the “Number of cells expressing hypocretins” value [7, 15] of the same compound?
**A.** 369.9

**Q.** What about the “Number of cells expressing hypocretins” value [7, 16] of the same compound?
**A.** 388.7

**Q.** And the “Number of cells expressing hypocretins” value [7, 17]?
**A.** 322.5

**Q.** And the “Number of cells expressing hypocretins” value [7, 18]?
**A.** 216.3

**Q.** And the “Number of cells expressing hypocretins” value [7, 19]?
**A.** 104.8

**Q.** And the “Number of cells expressing hypocretins” value [7, 20]?
**A.** 56.0

**Q.** And the “Number of cells expressing hypocretins” value [7, 21]?
**A.** 2221.1

**Q.** What about the “interaction with voltage dependent Na channels” value [8] of the same compound?
**A.** no interaction

**Q.** What about the “affinity for 5HT5A receptors” value (5HT5A receptors) of the same compound?
**A.** moderate affinity link may be suspected

**Q.** And the “number of cells containing TH in the LC, entire structure (average)” value ([9]; 20 mg/kg i.p. sequential treatment at D0, D3, D6, D9 and D12, sacrificed at D16, control group 996±1)?
**A.** 1250±58

**Q.** What about the “time for which the increase in positive supernumerary TH cells in the LC is maintained after the treatment stopped” value ([9]; one 20 mg/kg i.p. injection every 3 days for 15 days) of the same compound?
**A.** 24 days

**Q.** With `O=C(COC1CC2CCCN3CCc4c(n1c1ccccc41)C23)NCCN1CCOCC1` (racemic) [Compound (If1), (±) (3β, 16α) 14,15-dihydro 14-[(2-morpholin-4-yl-ethylcarbamoyl)-methoxy]20,21-dinoreburnamenin] as the compound, how does the “increase of the total TH content in the LC” value ([1]; FIG. 1, 3 days after a single i.p. injection (20 mg/kg), versus control mice) read?
**A.** 13±3%

**Q.** And the “Quantity of TH measured in the LC” value [1]?
**A.** 113 ± 4%

**Q.** For `C1=Cn2c3c(c4ccccc42)CCN2CCC[C@@H]1[C@H]32` [(Ij1)], which “Quantity of TH measured in the LC” value [1] is on record?
**A.** 123 ± 2%

**Q.** For `OC1C[C@H]2CCCN3CCc4c(n1c1ccccc41)[C@@H]23` (stereo partly drawn) [Compound (1), 14,15 dihydro-20,21-dinoreburnamenin14-ol, reference compound], which “Quantity of TH measured in the LC” value [1] is on record?
**A.** 120 ± 4%

**Q.** And the “presence of the substance after i.p. administration of compound (Ie1)” value ([3]; 45 minutes after i.p. administration of (Ie1) 20 mg/kg)?
**A.** undetectable

**Q.** And the “share of the cerebral concentration” value [3]?
**A.** 11%

**Q.** What about the “Number of cells expressing hypocretins” value [7, 10] of the same compound?
**A.** 60.357

**Q.** And the “Number of cells expressing hypocretins” value [7, 11]?
**A.** 116.369

**Q.** What about the “Number of cells expressing hypocretins” value [7, 12] of the same compound?
**A.** 177.209

**Q.** And the “Number of cells expressing hypocretins” value [7, 13]?
**A.** 317.237

**Q.** What about the “Number of cells expressing hypocretins” value [7, 14] of the same compound?
**A.** 367.454

**Q.** What about the “Number of cells expressing hypocretins” value [7, 15] of the same compound?
**A.** 377.594

**Q.** And the “Number of cells expressing hypocretins” value [7, 16]?
**A.** 365.523

**Q.** And the “Number of cells expressing hypocretins” value [7, 17]?
**A.** 236.600

**Q.** What about the “Number of cells expressing hypocretins” value [7, 18] of the same compound?
**A.** 136.166

**Q.** And the “Number of cells expressing hypocretins” value [7, 19]?
**A.** 60.840

**Q.** What about the “Number of cells expressing hypocretins” value [7, 20] of the same compound?
**A.** 23.177

**Q.** What about the “Number of cells expressing hypocretins” value [7, 21] of the same compound?
**A.** 2238.526

**Q.** For `CN(C)CCCN1c2ccccc2CCc2ccccc21` [Imipramine, imipramine, reference compound], which “Average immobilisation time” value (Balb/c variety; 30 mg/kg i.p. 30 minutes before the test) is on record?
**A.** 70 s
